Laboratory results: US10081624B2, “Heterocyclic compound” (Takeda Pharmaceutical Company Limited, priority 2014, dated 2018)

Tests used:
HDAC6 enzyme = target: T1, HDAC6 enzyme (Homo sapiens, UniProt Q9UBN7); assay: HDAC6 enzyme inhibitory assay (HDAC-Glo I/II Assay kit); type: biochemical; conditions: 1 μM test compound; read-out: HDAC6 inhibitory rate (%) (1 μM)
T1 construct: prepared by transducing full length HDAC1 and HDAC6 genes into Sf-9 insect cells; GST; purchased SignalChem; host or cells: Sf-9 insect cells
T1 sequence (Q9UBN7 1-1215): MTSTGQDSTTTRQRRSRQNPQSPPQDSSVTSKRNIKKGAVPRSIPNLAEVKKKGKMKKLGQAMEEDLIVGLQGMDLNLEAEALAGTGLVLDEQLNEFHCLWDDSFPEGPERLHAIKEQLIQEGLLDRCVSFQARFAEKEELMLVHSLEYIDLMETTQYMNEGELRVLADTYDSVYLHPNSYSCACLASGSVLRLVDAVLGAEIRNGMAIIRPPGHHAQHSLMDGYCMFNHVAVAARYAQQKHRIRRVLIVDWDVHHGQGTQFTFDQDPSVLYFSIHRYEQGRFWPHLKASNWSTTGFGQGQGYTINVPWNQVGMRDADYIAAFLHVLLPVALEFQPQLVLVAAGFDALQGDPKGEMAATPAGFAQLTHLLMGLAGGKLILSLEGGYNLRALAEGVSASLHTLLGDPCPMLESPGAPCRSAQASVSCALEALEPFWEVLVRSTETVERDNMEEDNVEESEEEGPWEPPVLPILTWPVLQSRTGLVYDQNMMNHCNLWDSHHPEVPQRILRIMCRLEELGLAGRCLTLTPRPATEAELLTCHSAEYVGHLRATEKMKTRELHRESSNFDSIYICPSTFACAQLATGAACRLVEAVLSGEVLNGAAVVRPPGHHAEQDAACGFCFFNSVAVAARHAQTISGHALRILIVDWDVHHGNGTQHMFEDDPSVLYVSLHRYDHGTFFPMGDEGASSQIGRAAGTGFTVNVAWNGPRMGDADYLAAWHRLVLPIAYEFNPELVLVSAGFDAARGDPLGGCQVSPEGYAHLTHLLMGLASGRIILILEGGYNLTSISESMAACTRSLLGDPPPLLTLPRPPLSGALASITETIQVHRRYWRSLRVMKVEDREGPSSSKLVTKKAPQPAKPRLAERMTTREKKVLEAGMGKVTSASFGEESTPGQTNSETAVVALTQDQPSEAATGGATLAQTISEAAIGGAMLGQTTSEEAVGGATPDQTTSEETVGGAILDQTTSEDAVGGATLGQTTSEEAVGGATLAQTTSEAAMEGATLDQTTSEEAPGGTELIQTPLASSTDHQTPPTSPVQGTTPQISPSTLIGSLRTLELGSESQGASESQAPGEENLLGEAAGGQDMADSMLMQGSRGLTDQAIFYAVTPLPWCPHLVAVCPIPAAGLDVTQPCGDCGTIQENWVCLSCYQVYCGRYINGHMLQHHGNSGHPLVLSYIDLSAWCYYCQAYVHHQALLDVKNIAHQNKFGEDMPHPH
In short: (§1)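 Full-length GST-purified HDAC1 or HDAC6 (Sf-9 expressed) preincubated 60 min at room temperature with compound in Tris-HCl pH 7.5 buffer with glutathione and Tween-20. HDAC-Glo substrate-developer added, 20 min at room temperature, then luminescence read; inhibition relative to no-enzyme wells as 100%.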

HDAC1 enzyme = target: T2, HDAC1 enzyme (Homo sapiens, UniProt Q13547); assay: HDAC1 enzyme inhibitory assay (HDAC-Glo I/II Assay kit); type: biochemical; conditions: 1 μM test compound; read-out: HDAC1 inhibitory rate (%) (1 μM)
T2 construct: prepared by transducing full length HDAC1 and HDAC6 genes into Sf-9 insect cells; GST; purchased SignalChem; host or cells: Sf-9 insect cells
In short: as §1

T2 sequence (Q13547 whole entry): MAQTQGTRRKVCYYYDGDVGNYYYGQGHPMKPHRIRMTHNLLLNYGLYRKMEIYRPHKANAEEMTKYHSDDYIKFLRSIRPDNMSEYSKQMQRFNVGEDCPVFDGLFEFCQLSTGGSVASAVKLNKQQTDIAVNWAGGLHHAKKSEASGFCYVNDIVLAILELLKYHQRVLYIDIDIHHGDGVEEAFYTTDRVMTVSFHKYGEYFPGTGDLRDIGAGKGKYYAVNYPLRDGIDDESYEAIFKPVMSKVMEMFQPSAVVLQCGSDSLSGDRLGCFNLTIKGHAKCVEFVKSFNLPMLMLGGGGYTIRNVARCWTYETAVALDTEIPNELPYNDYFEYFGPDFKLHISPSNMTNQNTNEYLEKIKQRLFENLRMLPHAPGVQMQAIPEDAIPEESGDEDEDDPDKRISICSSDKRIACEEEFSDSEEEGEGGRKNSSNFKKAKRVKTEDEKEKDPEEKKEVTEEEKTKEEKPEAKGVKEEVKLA

inhibition at 1 µM (HDAC6 enzyme) [%] | inhibition at 1 µM (HDAC1 enzyme) [%] | SMILES
96 | 14 | Cc1ccc(C(=O)N2CCOC[C@H]2CNC(=O)c2ccc(-c3noc(C(F)(F)F)n3)cc2)s1 [Example 144, N-(((3R)-4-((5-methyl-2-thienyl)carbonyl)morpholin-3-yl)methyl)-4-(5-(trifluoromethyl)-1,2,4-oxadiazol-3-yl)benzamide]
94 | 7 | O=C(NC[C@@H]1COCCN1C(=O)C1CC1)c1ccc(-c2noc(C(F)(F)F)n2)cc1 [Example 147, N-(((3R)-4-(cyclopropylcarbonyl)morpholin-3-yl)methyl)-4-(5-(trifluoromethyl)-1,2,4-oxadiazol-3-yl)benzamide]
96 | 12 | O=C(NC[C@@H]1COCCN1C(=O)C1CCCC1)c1ccc(-c2noc(C(F)(F)F)n2)cc1 [Example 149, N-(((3R)-4-(cyclopentylcarbonyl)morpholin-3-yl)methyl)-4-(5-(trifluoromethyl)-1,2,4-oxadiazol-3-yl)benzamide]
99 | 20 | O=C(NC[C@@H]1COCCN1C(=O)C1CCCCC1)c1ccc(-c2noc(C(F)(F)F)n2)cc1 [Example 152, N-(((3R)-4-(cyclohexylcarbonyl)morpholin-3-yl)methyl)-4-(5-(trifluoromethyl)-1,2,4-oxadiazol-3-yl)benzamide]
92 | 3 | O=C(NC[C@@H]1COCCN1C(=O)C1CCOCC1)c1ccc(-c2noc(C(F)(F)F)n2)cc1 [Example 153, N-(((3R)-4-(tetrahydro-2H-pyran-4-ylcarbonyl)morpholin-3-yl)methyl)-4-(5-(trifluoromethyl)-1,2,4-oxadiazol-3-yl)benzamide]
92 | 31 | Cn1nc2ccccc2c1C(=O)N1CCOC[C@H]1CNC(=O)c1ccc(-c2noc(C(F)(F)F)n2)cc1 [Example 157, N-(((3R)-4-((2-methyl-2H-indazol-3-yl)carbonyl)morpholin-3-yl)methyl)-4-(5-(trifluoromethyl)-1,2,4-oxadiazol-3-yl)benzamide]
97 | 16 | O=C(NCC1CCCN1C(=O)c1ccccc1)c1ccc(-c2noc(C(F)(F)F)n2)cc1 (stereo not shown) [Example 162, N-((1-benzoylpyrrolidin-2-yl)methyl)-4-(5-(trifluoromethyl)-1,2,4-oxadiazol-3-yl)benzamide]
97 | 25 | O=C(NCC1CCCCN1C(=O)c1ccccc1)c1ccc(-c2noc(C(F)(F)F)n2)cc1 (stereo not shown) [Example 163, N-((1-benzoylpiperidin-2-yl)methyl)-4-(5-(trifluoromethyl)-1,2,4-oxadiazol-3-yl)benzamide]
98 | 17 | Cn1nccc1C(=O)N1CCCC[C@@H]1CNC(=O)c1ccc(-c2noc(C(F)(F)F)n2)cc1 [Example 164, N-(((2R)-1-((1-methyl-1H-pyrazol-5-yl)carbonyl)piperidin-2-yl)methyl)-4-(5-(trifluoromethyl)-1,2,4-oxadiazol-3-yl)benzamide]
93 | 15 | O=C(NCC1Cc2ccccc2N1C(=O)c1ccccc1)c1ccc(-c2noc(C(F)(F)F)n2)cc1 (stereo not shown) [Example 167, N-((1-benzoyl-2,3-dihydro-1H-indol-2-yl)methyl)-4-(5-(trifluoromethyl)-1,2,4-oxadiazol-3-yl)benzamide]
95 | 8 | O=C(NCC1CCc2ccccc2N1C(=O)C1CC1)c1ccc(-c2noc(C(F)(F)F)n2)cc1 (stereo not shown) [Example 172, N-((1-(cyclopropylcarbonyl)-1,2,3,4-tetrahydroquinolin-2-yl)methyl)-4-(5-(trifluoromethyl)-1,2,4-oxadiazol-3-yl)benzamide]
90 | 16 | O=C(NCC1CCc2ccccc2N1C(=O)c1ccccc1)c1ccc(-c2noc(C(F)(F)F)n2)cc1 (stereo not shown) [Example 173, N-((1-benzoyl-1,2,3,4-tetrahydroquinolin-2-yl)methyl)-4-(5-(trifluoromethyl)-1,2,4-oxadiazol-3-yl)benzamide]
97 | 18 | O=C(NCC1Cc2ccccc2CN1C(=O)c1ccccc1)c1ccc(-c2noc(C(F)(F)F)n2)cc1 (stereo not shown) [Example 175, N-((2-benzoyl-1,2,3,4-tetrahydroisoquinolin-3-yl)methyl)-4-(5-(trifluoromethyl)-1,2,4-oxadiazol-3-yl)benzamide]

Continued, compound first:

SMILES | inhibition at 1 µM (HDAC6 enzyme) [%] | inhibition at 1 µM (HDAC1 enzyme) [%]
Cc1csc(C(=O)N2CCOC[C@H]2CNC(=O)c2ccc(-c3noc(C(F)(F)F)n3)cc2)c1 [Example 145, N-(((3R)-4-((4-methyl-2-thienyl)carbonyl)morpholin-3-yl)methyl)-4-(5-(trifluoromethyl)-1,2,4-oxadiazol-3-yl)benzamide] | 97 | 15
O=C(NC[C@@H]1COCCN1C(=O)CC1CC1)c1ccc(-c2noc(C(F)(F)F)n2)cc1 [Example 148, N-(((3R)-4-(cyclopropylacetyl)morpholin-3-yl)methyl)-4-(5-(trifluoromethyl)-1,2,4-oxadiazol-3-yl)benzamide] | 95 | 10
O=C(NC[C@@H]1COCCN1C(=O)c1cc(F)cc(F)c1)c1ccc(-c2noc(C(F)(F)F)n2)cc1 [Example 155, N-(((3R)-4-(3,5-difluorobenzoyl)morpholin-3-yl)methyl)-4-(5-(trifluoromethyl)-1,2,4-oxadiazol-3-yl)benzamide] | 99 | 15
O=C(NC[C@@H]1COCCN1C(=O)N1CCCCC1)c1ccc(-c2noc(C(F)(F)F)n2)cc1 [Example 158, N-(((3R)-4-(piperidin-1-ylcarbonyl)morpholin-3-yl)methyl)-4-(5-(trifluoromethyl)-1,2,4-oxadiazol-3-yl)benzamide] | 97 | 12
CN(CC1COCCN1C(=O)c1ccccc1)C(=O)c1ccc(-c2noc(C(F)(F)F)n2)cc1 (stereo not shown) [Example 159, N-((4-benzoylmorpholin-3-yl)methyl)-N-methyl-4-(5-(trifluoromethyl)-1,2,4-oxadiazol-3-yl)benzamide] | 42 | 11
O=C(C[C@H]1COCCN1C(=O)c1ccccc1)Nc1ccc(-c2noc(C(F)(F)F)n2)cc1 [Example 160, 2-((3S)-4-benzoylmorpholin-3-yl)-N-(4-(5-(trifluoromethyl)-1,2,4-oxadiazol-3-yl)phenyl)acetamide] | 98 | 15
CN(C(=O)C[C@H]1COCCN1C(=O)c1ccccc1)c1ccc(-c2noc(C(F)(F)F)n2)cc1 [Example 161, 2-((3S)-4-benzoylmorpholin-3-yl)-N-methyl-N-(4-(5-(trifluoromethyl)-1,2,4-oxadiazol-3-yl)phenyl)acetamide] | 48 | 6
O=C(NCC1CN(C(=O)c2ccccc2)CCN1C(=O)c1ccccc1)c1ccc(-c2noc(C(F)(F)F)n2)cc1 (stereo not shown) [Example 165, N-((1,4-dibenzoylpiperazin-2-yl)methyl)-4-(5-(trifluoromethyl)-1,2,4-oxadiazol-3-yl)benzamide] | 99 | 17
O=C(NCC1COCCN1C(=O)c1ccccc1)c1ccc(-c2noc(C(F)(F)F)n2)cc1F (stereo not shown) [Example 177, N-((4-benzoylmorpholin-3-yl)methyl)-2-fluoro-4-(5-(trifluoromethyl)-1,2,4-oxadiazol-3-yl)benzamide] | 99 | 27
Cc1cc(-c2noc(C(F)(F)F)n2)ccc1C(=O)NCC1COCCN1C(=O)c1ccccc1 (stereo not shown) [Example 178, N-((4-benzoylmorpholin-3-yl)methyl)-2-methyl-4-(5-(trifluoromethyl)-1,2,4-oxadiazol-3-yl)benzamide] | 24 | 3
